Consider 21 compounds from paper PMC8151276, “An Integrated Approach toward NanoBRET Tracers for Analysis of GPCR Ligand Engagement” (Molecules, 2021).

Molecules are shown by their SMILES.

This test addresses T1, AVPR1A (Homo sapiens, UniProt P37288).
T1 construct: purchased Promega (in-house HiBiT-GPCR construct library, NanoBRET)
Description: NanoBRET screen HiBiT-AVPR1A in HEK293. In kind it is binding. As for the experimental part:
Each tracer candidate was screened across the entire library of HiBiT-GPCR constructs using NanoBRET as the detection modality. As depicted in Figure 4A, the specificity of interactions was evaluated through decrease in BRET due to competitive displacement of a bound tracer by excess parental compound. Each tracer was analyzed for binding to each HiBiT-GPCR fusion in the absence and in the presence of competing parental compound. Briefly, HEK293 cells were transfected with HiBiT-GPCR constructs diluted into promoterless DNA to reduce expression and maximize translocation to the cell surface. Each tracer candidate was then screened at concentrations of 1 μM and 0.1 μM across cells expressing these fusions. Cells were treated for 1.5 h with tracer either alone or in the presence of 20 μM competing parental compound (i.e., control). BRET was measured upon addition of purified LgBiT and subsequent complementation with HiBiT genetically fused to a GPCR. The specificity of interactions was assessed through a decrease in BRET signal due to competitive displacement of the bound tracer. To further gauge the robustness of these interactions, the fold response over the control (i.e., BRETtracer/BRETcontrol) was calculated. We chose a 1.5-fold response, which translates to ≥7-fold signal over noise as the minimal threshold required to score an interaction as positive.
HiBiT-GPCR DNA constructs were diluted in 10 mM Tris pH 8 to a final concentration of 0.01 μg/μL, arrayed in 96-well plates and stored at −20 °C. For transfection, HEK293 cells were suspended in Opti-MEM (without phenol red) supplemented with 2% fetal bovine serum (Seradigm) and 100 units/mL penicillin–streptomycin (Gibco) at a final concentration of 220,000 cells/mL and dispensed into white 96-well plates at 90 μL/well. Subsequent transfections and screens were carried using an Agilent Bravo Automated Liquid Handling Platform. First, the 96-well HiBiT DNA arrays were diluted 25-fold in Opti-MEM (without serum or phenol red) to a final concentration of 0.0004 μg/μL and 20 μL of the diluted DNAs were transferred into new 96-well plates. Next, promoterless carrier DNA (1 μg/μL) was diluted 25-fold (0.04 μg/μL) and then dispensed into the diluted arrays at 20 μL/well. Following brief mixing, Viafect transfection reagent (Promega) diluted 16-fold into Opti-MEM was dispensed into the plates at 40 μL/well. After mixing by pipetting, plates were incubated for 10 min on the pipetting station deck. The DNA-transfection reagent complexes were then added to plates containing cells. To facilitate the screen, 10 μL of DNA-transfection reagent complexes were added in duplicates to the top 4 and bottom 4 rows, resulting in two identical 48-well arrays per plate. Plates with transfected cells were incubated for 18–20 h at 37 °C/5% CO2. A screen of each tracer across the entire library using two different concentrations requires duplicate plates of transfected cells. Depending on the number of tracers being screened, transfections can be scaled up using the same ratios. The next day, for each tracer, four 20× screening solutions in tracer dilution buffer (Promega) were prepared: two duplicates at final concentration of 20 μM and two duplicates at a final concentration of 2 μM. […] The four resulting solutions were diluted 4-fold in Opti-MEM without serum or phenol red to generate 5× solutions (5 µM and 0.5 µM tracer +/− 100 μM competing compound). To screen the library, a BioTek MultiFlo FX liquid dispenser was used to dispense 22.5 µL of tracer solution to the top 4 rows and 22.5 µL tracer + competing compound solution to the 4 bottom rows. Plates were briefly mixed on an orbital shaker and incubated for 1.5 h at room temperature. […] Plates were briefly mixed on an orbital shaker and incubated for 15 min to allow complementation.
(Bioluminescence resonance energy transfer reports proximity on the nanometre scale.)

T1 sequence (P37288 whole entry): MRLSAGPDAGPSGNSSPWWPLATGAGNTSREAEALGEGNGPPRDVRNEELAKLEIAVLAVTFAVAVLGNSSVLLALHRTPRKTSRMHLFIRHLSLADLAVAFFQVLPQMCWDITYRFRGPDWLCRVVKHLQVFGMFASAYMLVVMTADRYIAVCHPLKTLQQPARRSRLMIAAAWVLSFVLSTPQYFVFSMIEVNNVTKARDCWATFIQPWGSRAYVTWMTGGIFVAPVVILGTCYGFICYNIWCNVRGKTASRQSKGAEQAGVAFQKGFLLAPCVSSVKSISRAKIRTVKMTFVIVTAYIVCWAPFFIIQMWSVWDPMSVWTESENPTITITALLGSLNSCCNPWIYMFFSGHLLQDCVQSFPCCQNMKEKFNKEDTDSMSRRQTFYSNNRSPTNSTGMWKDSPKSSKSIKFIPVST

With `O=C(CCOCCOCCOCCOCCNC(=O)CCc1ccc2n1[B-](F)(F)[N+]1=C(c3ccc[nH]3)C=CC1=C2)NCCCN1CCN(C2=Nc3ccccc3Oc3ccc(Cl)cc32)CC1` [Loxapine-a-2-NB590], the “NanoBRET Fold Response” value is, setting by setting: (AVPR1A, tracer 0.1μM) 1.16; (AVPR1A, tracer 1μM) 0.90.
On the same counts, the results for `CCCn1c(=O)c2[nH]c(-c3ccc(OCC(=O)NCCNC(=O)CCOCCNC(=O)c4ccc(CNC(=O)CCc5ccc6n5[B-](F)(F)[N+]5=C(c7ccc[nH]7)C=CC5=C6)cc4)cc3)nc2n(CCC)c1=O` [XAC-3-NB590] are 1.25 and 1.36.
For the compound `CN(C)CCC=C1c2ccccc2CCc2ccc(C(=O)NCCNC(=O)CCOCCOCCOCCOCCNC(=O)CCc3ccc4n3[B-](F)(F)[N+]3=C(c5ccc[nH]5)C=CC3=C4)cc21` [Amitriptyline-a-2-NB590], the “NanoBRET Fold Response” value (tracer at 0.1μM) worked out at 0.93 and the “NanoBRET Fold Response” value (tracer at 1μM) worked out at 1.11.
For the compound `COc1ccccc1N1CCN(CCCCN2C(=O)c3ccc(CNC(=O)CCOCCOCCOCCOCCNC(=O)CCc4ccc5n4[B-](F)(F)[N+]4=C(c6ccc[nH]6)C=CC4=C5)cc3C2=O)CC1` [NAN-190-2-NB590], the “NanoBRET Fold Response” value turned out to be 0.97 (AVPR1A, tracer 0.1μM) and 0.96 (AVPR1A, tracer 1μM).
Turning to `O=C(CCc1ccc2n1[B-](F)(F)[N+]1=C(c3ccc[nH]3)C=CC1=C2)NCc1ccc(C(=O)NCCOCCOCCNCC(O)COc2cccc3ccccc23)cc1` (centres unmarked) [Propranolol-3-NB590], the “NanoBRET Fold Response” value reads like this: (AVPR1A, 0.1μM) 1.06; (AVPR1A, 1μM) 0.97.
Consider `COc1ccccc1N1CCN(CCCCN2C(=O)c3ccc(CNC(=O)CCOCCNC(=O)c4ccc(CNC(=O)CCc5ccc6n5[B-](F)(F)[N+]5=C(c7ccc[nH]7)C=CC5=C6)cc4)cc3C2=O)CC1` [NAN-190-3-NB590], for which the “NanoBRET Fold Response” value is reported as 0.90 (AVPR1A, tracer 0.1μM) and 0.75 (AVPR1A, tracer 1μM).
Taken in the same sequence, the figures for `O=C(CCc1ccc2n1[B-](F)(F)[N+]1=C(c3ccc[nH]3)C=CC1=C2)NCc1ccc(C(=O)NCCOCCC(=O)N[C@@H]2CC[C@@]3(O)[C@H]4Cc5ccc(O)c6c5[C@@]3(CCN4CC3CC3)[C@H]2O6)cc1` [Naltrexone-3-NB590] were 1.34 and 0.76.
In the case of `CCOC(=O)c1cc(C#N)c(N2CCC(C(=O)NS(=O)(=O)Cc3ccccc3/C=C/C(=O)NCCNC(=O)CCc3ccc4n3[B-](F)(F)[N+]3=C(c5ccc[nH]5)C=CC3=C4)CC2)nc1C` [AZD1283-1-NB590], the “NanoBRET Fold Response” value (AVPR1A, 0.1μM) stood at 1.17 and the “NanoBRET Fold Response” value (AVPR1A, 1μM) is on record as 1.06.
For `COc1ccc2[nH]c(-c3ccc(CNC(=O)CCOCCOCCOCCOCCNC(=O)CCc4ccc5n4[B-](F)(F)[N+]4=C(c6ccc[nH]6)C=CC4=C5)cc3)c(CCNC(C)=O)c2n1` [AzomelatoninICO9-2-NB590], the “NanoBRET Fold Response” value is on record as 0.80 (0.1μM tracer) and 0.75 (1μM tracer).
On to `CC(C)N(CC[C@H](c1ccccc1)c1cc(CCNC(=O)CCOCCOCCOCCOCCNC(=O)CCc2ccc3n2[B-](F)(F)[N+]2=C(c4ccc[nH]4)C=CC2=C3)ccc1O)C(C)C` [Tolterodine-2-NB590], for which the “NanoBRET Fold Response” value runs as follows: (AVPR1A, tracer 0.1μM) 0.91; (AVPR1A, tracer 1μM) 1.03.
In the case of `CN1CCN(C2=Nc3cc(Cl)ccc3N(CC(=O)NCCOCCOCCOCCOCCNC(=O)CCc3ccc4n3[B-](F)(F)[N+]3=C(c5ccc[nH]5)C=CC3=C4)c3ccccc32)CC1` [Clozapine-c-2-NB590], the “NanoBRET Fold Response” value reads like this: (AVPR1A, 0.1μM tracer) 0.99; (AVPR1A, 1μM tracer) 0.96.
On to `N#CN=C(NCCCOc1cccc(CN2CCCCC2)c1)NCCNC(=O)CCOCCOCCOCCOCCNC(=O)CCc1ccc2n1[B-](F)(F)[N+]1=C(c3ccc[nH]3)C=CC1=C2` [Aminopotentidine-2-NB590], for which the “NanoBRET Fold Response” value was determined as 0.93 (AVPR1A, tracer 0.1μM) and 0.97 (AVPR1A, tracer 1μM).
Regarding `COc1ccc2c(n1)c(CCNC(C)=O)cn2CCNC(=O)CCc1ccc2n1[B-](F)(F)[N+]1=C(c3ccc[nH]3)C=CC1=C2` [Azamelatonin-1-NB590], the “NanoBRET Fold Response” value reads like this: (0.1μM tracer) 2.27; (1μM tracer) 0.90.
In the case of `CN(CCC=C1c2ccccc2CCc2ccccc21)C(=O)CCOCCOCCOCCOCCNC(=O)CCc1ccc2n1[B-](F)(F)[N+]1=C(c3ccc[nH]3)C=CC1=C2` [Amitriptyline-e-2-NB590], the “NanoBRET Fold Response” value (tracer at 1μM) was found to be 0.98.
Regarding `CC(C)N(CC[C@H](c1ccccc1)c1cc(CCNC(=O)c2ccc(CNC(=O)CCc3ccc4n3[B-](F)(F)[N+]3=C(c5ccc[nH]5)C=CC3=C4)cc2)ccc1O)C(C)C` [Tolterodine-BZ-NB590], the “NanoBRET Fold Response” value is 1.15 (AVPR1A, tracer 0.1μM) and 1.07 (AVPR1A, tracer 1μM).
On the same counts, the results for `O=C(CCc1ccc2n1[B-](F)(F)[N+]1=C(c3ccc[nH]3)C=CC1=C2)NCCOCCOCCNC(=O)OCCOCCN1CCN(C2=Nc3ccccc3Sc3ccccc32)CC1` [Quetiapine-a-2-NB590] are 1.02 and 1.00.
In the case of `Cc1cc2c(s1)Nc1ccccc1N=C2N1CCN(CCCNC(=O)CCOCCOCCOCCOCCNC(=O)CCc2ccc3n2[B-](F)(F)[N+]2=C(c4ccc[nH]4)C=CC2=C3)CC1` [Olanzapine-a-2-NB590], the “NanoBRET Fold Response” value is, setting by setting: (AVPR1A, tracer 0.1μM) 1.11; (AVPR1A, tracer 1μM) 1.16.
Take `CN(C)CCC=C1c2ccccc2CCc2ccc(C(=O)NCCNC(=O)CCOCCOCCOCCOCCNC(=O)CCc3ccc4n3[B-](F)(F)[N+]3=C(c5ccc[nH]5)C=CC3=C4)cc21` [Amitriptyline-b-2-NB590]: the “NanoBRET Fold Response” value reads like this: (tracer at 0.1μM, listed as amitriptyline-b-2-NB590) 1.10; (tracer at 1μM, listed as amitriptyline-b-2-NB590) 0.77.
Take `O=C(CCOCCOCCOCCOCCNC(=O)CCc1ccc2n1[B-](F)(F)[N+]1=C(c3ccc[nH]3)C=CC1=C2)NCCCN1CCN(C2=Nc3cc(Cl)ccc3Nc3ccccc32)CC1` [Clozapine-a-2-NB590]: the “NanoBRET Fold Response” value (AVPR1A, 0.1μM tracer) is 0.89 and the “NanoBRET Fold Response” value (AVPR1A, 1μM tracer) is 0.99.
On the same counts, the results for `CN1CCN(C2=Nc3cc(Cl)ccc3Nc3ccc(CNC(=O)CCOCCOCCOCCOCCNC(=O)CCc4ccc5n4[B-](F)(F)[N+]4=C(c6ccc[nH]6)C=CC4=C5)cc32)CC1` [Clozapine-b-2-NB590] are 1.04 and 0.98.
`Cc1nc2n(c(=O)c1CCN1CCC(c3noc4cc(F)ccc34)CC1)CCCC2OC(=O)NCCOCCOCCOCCOCCNC(=O)CCc1ccc2n1[B-](F)(F)[N+]1=C(c3ccc[nH]3)C=CC1=C2` (centres unmarked) [Risperidone-2-NB590]: the “NanoBRET Fold Response” value is on record as 0.90 (AVPR1A, tracer 0.1μM) and 0.87 (AVPR1A, tracer 1μM).
